Experimental data published in ChEMBL document CHEMBL3808363, “2-(Thienothiazolylimino)-1,3-thiazolidin-4-ones inhibit cell division cycle 25 A phosphatase” (Bioorg Med Chem, 2016).

Target: T1, M-phase inducer phosphatase 1 (Homo sapiens, UniProt P30304)
T1 sequence (P30304 whole entry): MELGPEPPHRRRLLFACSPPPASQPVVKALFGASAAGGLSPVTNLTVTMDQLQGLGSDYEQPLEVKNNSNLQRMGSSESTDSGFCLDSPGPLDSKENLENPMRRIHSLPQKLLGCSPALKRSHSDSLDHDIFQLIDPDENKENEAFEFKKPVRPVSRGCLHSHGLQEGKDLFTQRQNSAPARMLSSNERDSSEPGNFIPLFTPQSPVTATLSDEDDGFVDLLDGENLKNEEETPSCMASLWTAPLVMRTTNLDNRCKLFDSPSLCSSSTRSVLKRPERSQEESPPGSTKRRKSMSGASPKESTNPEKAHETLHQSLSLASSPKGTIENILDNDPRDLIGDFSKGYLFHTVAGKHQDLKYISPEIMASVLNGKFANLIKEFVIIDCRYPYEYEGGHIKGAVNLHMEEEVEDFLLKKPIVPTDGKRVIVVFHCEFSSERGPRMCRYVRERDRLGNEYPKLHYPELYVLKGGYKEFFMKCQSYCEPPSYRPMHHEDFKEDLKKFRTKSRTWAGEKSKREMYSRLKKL
Experiment: Mixed type inhibition of human recombinant full length GST-tagged CDC25A transfected in Escherichia coli BL21-DE3 assessed as enzyme/inhibitor complex using 3-O-methylfluorescein phosphate as substrate at 5 uM incubated for 20 mins followed by substrate addition measured every 10 mins for 2 hrs by fluorimetric assay

## COc1ccc(/C=C2/S/C(=N\c3nc4cc(-c5ccc(Cl)cc5)sc4s3)NC2=O)cc1
  Ki: 37.1 µM
